This is an account of results in ChEMBL document CHEMBL2216747, “Effect of daurisoline on HERG channel electrophysiological function and protein expression” (J Nat Prod, 2012).

The subject of data set [1] is HEK293. In words: Downregulation of human ERG expression in HEK293 cells assessed as change in intensity of 135 kDa band at 1 to 10 uM after 24 hrs by Western blot analysis. Type of data set: ADME, cell-based. As to conditions: hek293, 24 h. A general note: Immunoblotting shows a protein as a band on a membrane.
Data set [2] relates to HEK293. In words: Downregulation of human ERG expression in HEK293 cells assessed as decrease in intensity of 155 kDa band at 30 uM after 24 hrs by Western blot analysis. In kind it is ADME, cell-based. Conditions: hek293, 24 h.
The test system of data set [3] is HEK293. In words: Downregulation of human ERG expression in HEK293 cells assessed as decrease in intensity of 135 kDa band at 30 uM after 24 hrs by Western blot analysis. As to conditions: hek293, 24 h. Type of data set: ADME, cell-based.
Data set [4] has as its system HEK293. In words: Reduction in human ERG-tail density expressed in HEK293 cells at 30 uM after 24 hrs by densitometric analysis. In kind it is ADME, cell-based. As to conditions: hek293, 24 h.
Data set [5] can be described thus: Cmax in rabbit at 30 uM, iv administered as bolus dose. Type of data set: ADME, organism-based, Oryctolagus cuniculus. As to conditions: in vivo. Further details: dose 30 uM, route intravenous.
The nature of data set [6]: Cmax in dog at 30 uM, iv administered as bolus dose. Conditions: in vivo. In kind it is ADME, organism-based, Canis lupus familiaris. Set-up: dose 30 uM, route intravenous.
In the next data set the target is IKs (KCNE1) (Cavia porcellus, UniProt Q60409). Put plainly: Inhibition of Iks tail current in guinea pig ventricular myocytes at 100 uM. Type of data set: cell-based, Ventricular myocyte.
Chain of IKs (KCNE1) (Q60409 whole entry): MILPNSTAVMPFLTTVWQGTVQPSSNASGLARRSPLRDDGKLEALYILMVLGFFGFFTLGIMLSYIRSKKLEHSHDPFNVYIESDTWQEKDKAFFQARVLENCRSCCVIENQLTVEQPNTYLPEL
Another data set has as its system IKr. Put plainly: Inhibition of Ikr tail current in guinea pig ventricular myocytes at 10 uM. Type of data set: cell-based, Cavia porcellus, Ventricular myocyte.
Data set [7] in a line: Inhibition of Ikr tail current in rabbit ventricular myocytes. In kind it is cell-based. Conditions: Oryctolagus cuniculus, Ventricular myocyte.
The target in data set [8] is Potassium voltage-gated channel subfamily E member 1 (Oryctolagus cuniculus, UniProt Q28705). In words: Inhibition of Iks tail current in rabbit ventricular myocytes. Type of data set: cell-based, Ventricular myocyte.
Chain of Potassium voltage-gated channel subfamily E member 1 (Q28705 whole entry): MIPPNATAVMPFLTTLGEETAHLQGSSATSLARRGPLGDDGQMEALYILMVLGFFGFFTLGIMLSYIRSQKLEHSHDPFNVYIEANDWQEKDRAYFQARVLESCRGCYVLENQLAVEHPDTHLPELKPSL
The test system of data set [9] is HEK293. Put plainly: Downregulation of human ERG mRNA expression in HEK293 cells at 30 uM after 24 hrs by RT-PCR analysis. In kind it is ADME, cell-based. As to conditions: hek293, 24 h.
Data set [10] has as its system HEK293. In words: Downregulation of human ERG mRNA expression in HEK293 cells at 30 uM after 24 hrs by qRT-PCR analysis. In kind it is ADME, cell-based. Conditions: hek293, 24 h. (In general: In qPCR the cycle at which signal appears reflects the starting amount.)
The test system of data set [11] is HEK293. Put plainly: Downregulation of human ERG expression in HEK293 cells assessed as change in intensity of 155 kDa band at 1 to 10 uM after 24 hrs by Western blot analysis. In kind it is ADME, cell-based. As to conditions: hek293, 24 h.

In the case of `COc1cc2c(cc1O)[C@@H](Cc1ccc(O)c(Oc3ccc(C[C@@H]4c5cc(OC)c(OC)cc5CCN4C)cc3)c1)N(C)CC2` [DARUISOLINE], the Activity entry in the data set on HEK293 [1] is reported as “Non-toxic”; in the data set on HEK293 [2], “Toxic”; in the data set with HEK293 [3] it was “Toxic”; in the data set on HEK293 [4], “Toxic”; in the data set with HEK293 [9], “Toxic”; in the data set on HEK293 [10], “Toxic”. The Activity entry in the data set with HEK293 [11] is recorded as “Non-toxic”. Besides, the Cmax at 30 µM in [5] and in data set [6] was 1700 nM each time. Also, the inhibition at 100 µM against IKs (KCNE1) turned out to be 50%. Further, the inhibition at 10 µM with IKr was 39%. Moreover, the 50% inhibitory concentration (IC50) in data set [7] is 19.9 µM; in [8] it was 52.5 µM.

Usually Cmax stands for the maximum level reached in the sampled fluid or tissue. A word on the inhibition: it is the share of the control response that was lost under treatment. Usually IC50 stands for the concentration needed to halve the response being measured.
